# Results: patent US20070105928A1, “6-Pentafluorophenyl-triazolopyrimidines, method for their production and their use for combating pathogenic fungi, in addition to agents containing said substances” (priority 2003, published 2007)
# How the values were obtained:
# Pyrenophora teres = assay: Activity against net blotch of barley caused by Pyrenophora teres, protective application; type: in vivo, Pyrenophora [syn. Drechslera] teres; conditions: 250 ppm, barley seedlings cultivar Hanna, protective spray, assessed after 6 days; untreated plants 90% infected
# Procedure: The active compounds were prepared as a stock solution with 0.25% by weight of active compound in acetone or DMSO. 1% by weight of the emulsifier Uniperol® EL (wetting agent having emulsifying and dispersing action based on ethoxylated alkylphenols) was added to this solution, and the mixture was diluted with water to the desired concentration. Leaves of pot-grown barley seedlings of the cultivar “Hanna” were sprayed to run off point with an aqueous suspension having the concentration of active compound stated below. 24 hours after the spray coating had dried on, the test plants were inoculated with an aqueous suspension of Pyrenophora [syn. Drechslera] teres, the causative agent of net blotch. The test plants were subsequently placed in a greenhouse at 20-24° C. and 95-100% relative atmospheric humidity. After 6 days, the extent of development of the disease was determined visually in percent infection of the total leaf area.
# Botrytis cinerea = assay: Activity against gray mold on bell pepper leaves caused by Botrytis cinerea, protective application; type: in vivo; conditions: 63 ppm, bell pepper seedlings cultivar Neusiedler Ideal Elite, protective spray, assessed after 5 days; untreated plants 90% infected
# Procedure: The active compounds were prepared as a stock solution with 0.25% by weight of active compound in acetone or DMSO. 1% by weight of the emulsifier Uniperol® EL (wetting agent having emulsifying and dispersing action based on ethoxylated alkylphenols) was added to this solution, and the mixture was diluted with water to the desired concentration. Bell pepper seedlings of the cultivar “Neusiedler Ideal Elite” were, after 2 to 3 leaves were well developed, sprayed to runoff point with an aqueous suspension having the concentration of active compound stated below. The next day, the treated plants were inoculated with a spore suspension of Botrytis cinerea which contained 1.7×10^6 spores/ml in a 2% strength aqueous biomalt solution. The test plants were then placed in a dark climatized chamber at 22-24° C. and high atmospheric humidity. After 5 days, the extent of the fungal infection on the leaves could be determined visually in %.
smiles,measurement,setting,value
"Cc1nc2ncnn2c(N2CCC(C)CC2)c1-c1c(F)c(F)c(F)c(F)c1F [Compound I-3, 5-methyl-6-(pentafluorophenyl)-7-(4-methylpiperidinyl)-1,2,4-triazolo[1,5a]pyrimidine]",infection of the total leaf area,Pyrenophora teres,5%
same,fungal infection on the leaves,Botrytis cinerea,no infection
